Data reported in patent US8507724B2 (priority 2008, dated 2013).
Values joined by “and” are separate entries in the source; they are usually repeats but may differ in a detail not shown here. Identical values can stand only once. Like-named read-outs stand apart in the source and are kept apart here.

Key:
[1] = biological target: T1, α1 homomeric glycine receptors (Rattus norvegicus, UniProt P07727); experiment: Whole-cell patch-clamp, Cl- current activated via α1 homomeric glycine receptors in transfected HEK 293 cells; assay type: cell-based
T1 construct: expressed in transfected cells; host or cells: HEK 293 (transient transfection by electroporation, cDNA in pCIS2 vector)
T1 sequence (P07727 29-457): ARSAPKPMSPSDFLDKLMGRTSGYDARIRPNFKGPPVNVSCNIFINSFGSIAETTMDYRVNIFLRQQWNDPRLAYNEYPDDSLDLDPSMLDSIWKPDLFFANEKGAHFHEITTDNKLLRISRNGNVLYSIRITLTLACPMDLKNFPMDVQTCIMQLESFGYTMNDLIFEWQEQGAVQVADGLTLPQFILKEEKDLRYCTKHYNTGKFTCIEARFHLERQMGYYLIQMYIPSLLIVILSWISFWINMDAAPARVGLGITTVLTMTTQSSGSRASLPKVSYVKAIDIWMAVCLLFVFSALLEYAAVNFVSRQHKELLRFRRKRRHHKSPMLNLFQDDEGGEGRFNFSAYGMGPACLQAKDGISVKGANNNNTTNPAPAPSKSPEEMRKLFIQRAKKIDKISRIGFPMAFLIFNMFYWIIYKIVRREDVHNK
Experimental: Cells were cultured in Dulbecco's modified Eagle's medium (DMEM, Biochrom, Berlin, Germany), supplemented with 10% fetal calf serum (FCS, Biochrom, Berlin, Germany), 100 U ml^−1 penicillin and 100 μg ml^−1 streptomycin at 37° C. in a 5% CO2/air incubator. […] For co-transfection of rat α1 glycine receptor subunits, the corresponding cDNA, each subcloned in the pCIS2 expression vector (Invitrogen, San Diego, USA), was added to the suspension. To visualize transfected cells, they were co-transfected with cDNA of green fluorescent protein (GFP 10 μg ml^−1). For transfection, we used an electroporation device by EquiBio (Kent, UK).
The compounds according to the present invention under investigation were prepared as 1 M stock solution in ethanol, light-protected and stored in glass vessels at −20° C. Concentrations were calculated from the amount injected into the glass vials. Drug-containing vials were vigorously vortexed for 60 min. Glycine and picrotoxin were dissolved directly in bath solution.
Patch electrodes contained [mM] KCl 140, MgCl2 2, EGTA 11, HEPES 10, glucose 10; the bath solution contained [mM]
A tight electrical seal of several GΩ formed between the cell membrane and a patch-clamp electrode allows inward currents due to agonist-induced channel activation to resolve in the pA range. Electrical resistance of the pipettes was around 5 MΩ, corresponding to a total access resistance in the whole-cell configuration of about 10 MΩ. The compounds according to the present invention under investigation were applied to the cells via a smooth liquid filament achieved with a single outflow (glass tubing 0.15 mm inner diameter) connected to a piezo crystal. The cells were placed at the interface between this filament and the continuously flowing background solution. When a voltage pulse was applied to the piezo, the tube was moved up and down onto or away from the cell under investigation. Correct positioning of the cell in respect to the liquid filament was ensured applying a saturating (1000 μM) glycine pulse before and after each test experiment. Care was taken to ensure that the amplitude and the shape of the glycine-activated current had stabilized before proceeding with the experiment. Test solution and glycine (1000 μM) were applied via the same glass-polytetrafluoroethylen perfusion system, but from separate reservoirs. The contents of these reservoirs were mixed at a junction immediately before entering the superfusion chamber.
The compounds under test were applied alone in order to determine their direct agonistic effects. A new cell was used for each compound and each protocol, at least three different experiments were performed for each setting. The amount of the diluent ethanol corresponding to the highest compound concentration used was 34 000 μM.
For data acquisition and further analysis the inventors used the Axopatch 200B amplifier in combination with pClamp6 software (Axon Instruments, Union City, Calif., USA). Currents were filtered at 2 kHz. Fitting procedures were performed using a non-linear least-squares Marquardt-Levenberg algorithm. Details are provided in the appropriate figure legends or in the results section.
Activated currents were normalized to their own maximum response. The dose-response-curves were fitted according to (Inorm=[1+(EC50/[C])^nH]^−1), where Inorm is the current induced directly by the respective concentration [C] of the compound, normalized to the maximum inward current.

[2] = in vivo; assay type: in vivo; settings: rat; for Tmax: read-out: tmax (converted); for half-life: mean n=3, read-out: t1/2
Experimental: […] Whole blood samples were taken from a lateral tail vein for plasma separation at time points 0 min, 30 min, 1 h, 2 h and 4 h after p.o. dosing; and 0 min, 15 min, 30 min, 1 h, and 2 h after i.v. dosing, while the terminal samples at time point 6 h after dosing (p.o and Lv.) were taken by cardiac puncture. All time points were taken from a single rat, and all experiments were carried out in triplicate.
The samples were thawn at room temperature and prepared by protein precipitation with ratio 1:2 of plasma and acetonitrile and were centrifuged 10 minutes at 16 100×g (Eppendorf 5415D, Eppendorf AG, Hamburg, Germany) before injection to UPLCIMSMS system. The standard samples were prepared similarly, after spiking blank plasma samples to 0.5, 2, 5, 10, 20, 50, 200, 500, 1000 and 2000 ng/ml of the analyte compounds.
The pharmacokinetic parameters for study compounds were calculated by WinNonlin Pro (Pharsight Corp, CA) using standard noncompartmental methods. The volume of distribution (Vd) was based on the terminal phase. The elimination phase half-life (t1/2) was calculated by least-squares regression analysis of the terminal linear part of the log concentration-time curve. The area under the plasma concentration-time curve (AUC) was determined by use of the linear trapezoidal rule up to the last measurable concentration and thereafter by extrapolation of the terminal elimination phase to infinity. The area under the plasma concentration-time curve without terminal extrapolation is reported as AUC 0-6 h. The mean residence time (MRT) representing the average amount of time a compound remains in a compartment or system was calculated extrapolating the drug concentration profile to infinity. The maximum plasma concentration (cmax) and the time to cmax (tmax) were derived directly from the plasma concentration data. The tentative oral bioavailability (F) was calculated by dividing the AUC after p.o. administration by the AUC after i.v. administration taking into account the differences in dose, i.e. F=AUC(p.o.)/Dose(p.o.)/AUC(i.v)/[…], and reported as percentages (%).
A Waters Acquity chromatographic system (Waters Corp., Milford, Mass., USA) with autosampler, vacuum degasser and column oven was used. The analytical column used for all compounds was a Waters BEH ShieldRP18, (2.1×50 mm, 1.7 μm, Waters Corp, Milford, Mass., USA) together with an on-line filter. The eluents were 0.1% acetic acid (A, pH 3.2) and acetonitrile (B). A linear gradient elution from 5% B to 35% B in 0-2 minutes, from 35% B to 85% B in 2.0-3.0 min was employed, followed by 1 min isocratic elution with […] and column equilibration. The flow rate was 0.5 ml/min and the column oven temperature was 35° C. LC/MS/MS/data was acquired with a Micromass Quattro Premier triple quadrupole mass spectrometer equipped with a LockSpray electrospray ionization source. A negative ion mode ionisation was used. The multiple reaction monitoring (MRM) mode of detection was used. The mass spectrometer and UPLC system were operated under Micromass MassLynx 4.1 software. Complete LC/MS/MS parameters are presented in Appendix I.
Detection/quantitation limits between 2 ng/ml and 10 ng/ml in plasma were obtained for each compound. Calibration curves for quantification were generated by fitting the ratio of the external standard peak areas as a function of the concentration, excluding the point of origin and using 1/x weighting and linear or quadratic fitting. The ranges up to 2000 ng/ml were fitted for calibration curves. […] The overall precisions 12.0-17.0% were calculated from the standard samples (two injection/concentration), using Snedecor equation S=(Σd^2/2n)^0.5, in which S=precision, d is the difference between duplicates expressed as % of the mean value, and N is the number of standard concentration. The concentrations of each study compound in the samples are shown in the Appendices IV-VI.

[3] = EC50 (nM), α1 homomer, initial tests, Hill fit to normalised response, rat α1 receptors in HEK 293
[4] = initial tests, Hill fit to normalised response
[5] = plasma, iv, i.v. 1 mg/kg, mean n=3
[6] = 1 mg/kg i.v., individual animals, 1 mg/kg
[7] = 8 mg/kg p.o., individual animals, 8 mg/kg

Compound: CC(C)c1cc(-c2ccc(-c3ccccc3)cc2)cc(C(C)C)c1O [4-(p-biphenyl)-propofol]
- EC50 [1, 3]: 0.8 ± 0.2 nM
- nH (Hill coefficient), α1 homomer [1, 4]: 2.6 ± 1.2

Compound: CC(C)c1cc(-c2ccc(C(C)(C)C)cc2)cc(C(C)C)c1O [4-(p-tert-butylphenyl)-propofol]
- EC50 [1, 3]: 0.05 ± 0.03 nM
- nH (Hill coefficient), α1 homomer [1, 4]: 2.0 ± 0.4

Compound: CC(C)c1cc(Cl)cc(C(C)C)c1O [4-Cl-propofol, 4-Chloropropofol]
- clearance [2, 5]: 148 mL/min/kg
- Tmax [2, 5]: 15 min
- bioavailability ([2]; plasma, oral, 8 mg/kg p.o. vs 1 mg/kg i.v., read-out: F (%) tentative oral bioavailability): 72.4%
- Tmax ([2]; plasma, po, p.o. 8 mg/kg, mean n=3): 30 min
- tmax ([2]; 1 mg/kg i.v., individual animals): 15 min
- AUC [2, 6]: 10.7 µg·min/mL and 5.43 µg·min/mL and 6.01 µg·min/mL
- CL/F [2, 6]: 93.2 mL/min/kg and 184 mL/min/kg and 166 mL/min/kg
- MRT [2, 6]: 31.8 min and 80.8 min and 33.6 min
- cmax [2, 6]: 170 ng/mL and 70 ng/mL and 90 ng/mL
- t1/2 [2, 6]: 16.3 min and 81.8 min and 48.2 min
- tmax ([2]; 8 mg/kg p.o., individual animals): 30 min
- AUC [2, 7]: 33.2 µg·min/mL and 34.9 µg·min/mL and 60.4 µg·min/mL
- CL/F [2, 7]: 229 mL/min/kg and 133 mL/min/kg
- MRT [2, 7]: 305 min and 760 min and 764 min
- cmax [2, 7]: 0.12 μg/mL (2×) and 0.05 μg/mL
- t1/2 [2, 7]: 205 min and 493 min and 496 min
- ADC 0-6 h ([2]; i.v. 1 mg/kg, mean n=3): 6.29 µg·min/mL
- AUC ([2]; i.v. 1 mg/kg, mean n=3): 7.39 µg·min/mL
- CL/F ([2]; i.v. 1 mg/kg, mean n=3): 148 mL/min/kg
- half life (in words) ([2]; i.v. dosing): intermediate
- clearance (in words) ([2]; i.v. dosing, compared to rat liver blood flow): very high
- concentration in plasma ([2]; iv (1 mg/kg), 15 min, individual animals, listed as CK1-1, 1 mg/kg): 172 ng/mL and 70.0 ng/mL and 94.3 ng/mL
- concentration in plasma ([2]; iv (1 mg/kg), 30 min, individual animals, listed as CK1-1, 1 mg/kg): 26.1 ng/mL and 25.4 ng/mL
- concentration in plasma ([2]; iv (1 mg/kg), 1 h, individual animals, listed as CK1-1, 1 mg/kg): 15.2 ng/mL and 16.5 ng/mL
- concentration in plasma ([2]; iv (1 mg/kg), 2 h, individual animals, listed as CK1-1, 1 mg/kg): 33.7 ng/mL and 11.5 ng/mL
- detection in plasma after oral (p.o.) administration ([2]; p.o.): observed in plasma
- ADC 0-6 h ([2]; p.o. 8 mg/kg, mean n=3): 18.7 µg·min/mL
- AUC ([2]; p.o. 8 mg/kg, mean n=3): 42.8 µg·min/mL
- CL ([2]; p.o. 8 mg/kg, mean n=3): 146 mL/min/kg
- Vd ([2]; p.o. 8 mg/kg, mean n=3): 79.6 L/kg
- MRT ([2]; plasma, iv, 1 mg/kg, i.v. 1 mg/kg, mean n=3, read-out: MRT (converted)): 48.7 min
- Vd ([2]; plasma, iv, 1 mg/kg, i.v. 1 mg/kg, mean n=3, read-out: Vd): 11.8 L/kg
- cmax ([2]; plasma, iv, 1 mg/kg, i.v. 1 mg/kg, mean n=3, read-out: cmax): 110 ng/mL
- half-life ([2]; plasma, iv, 1 mg/kg, i.v. 1 mg/kg): 48.8 min
- concentration at 30 min ([2]; plasma, iv, 1 mg/kg, iv (1 mg/kg), 30 min, individual animals): 47.3 ng/mL
- concentration at 1 h ([2]; plasma, iv, 1 mg/kg, iv (1 mg/kg), 1 h, individual animals): 13.2 ng/mL
- CL/F ([2]; plasma, po, 8 mg/kg, 8 mg/kg p.o., individual animals, read-out: CL/F): 241 mL/min/kg
- Vd/F ([2]; plasma, po, 8 mg/kg, p.o. 8 mg/kg, mean n=3): 110 L/kg
- CL/F ([2]; plasma, po, 8 mg/kg, p.o. 8 mg/kg, mean n=3, read-out: CL/F): 201 mL/min/kg
- MRT ([2]; plasma, po, 8 mg/kg, p.o. 8 mg/kg, mean n=3, read-out: MRT (converted)): 609 min
- cmax ([2]; plasma, po, 8 mg/kg, p.o. 8 mg/kg, mean n=3, read-out: cmax): 100 ng/mL
- half-life ([2]; plasma, po, 8 mg/kg, p.o. 8 mg/kg): 398 min
- concentration at 4 h ([2]; plasma, po, 8 mg/kg, po (8 mg/kg), 4 h, individual animals): 61.8 ng/mL
- concentration at 6 h ([2]; plasma, po, 8 mg/kg, po (8 mg/kg), 6 h, individual animals): 33.8 ng/mL
- concentration in plasma ([2]; po (8 mg/kg), 30 min, individual animals, listed as CK1-1, 8 mg/kg): 121 ng/mL and 116 ng/mL and 51.0 ng/mL
- concentration in plasma ([2]; po (8 mg/kg), 1 h, individual animals, listed as CK1-1, 8 mg/kg): 99.8 ng/mL and 47.3 ng/mL and 57.2 ng/mL
- concentration in plasma ([2]; po (8 mg/kg), 2 h, individual animals, listed as CK1-1, 8 mg/kg): 64.3 ng/mL and 25.3 ng/mL and 52.3 ng/mL
- concentration in plasma ([2]; po (8 mg/kg), 4 h, individual animals, listed as CK1-1, 8 mg/kg): 36.1 ng/mL and 55.1 ng/mL
- concentration in plasma ([2]; po (8 mg/kg), 6 h, individual animals, listed as CK1-1, 8 mg/kg): 32.0 ng/mL and 55.3 ng/mL

Compound: CC(C)c1cc(NC(=O)C(F)(F)F)cc(C(C)C)c1O [4-trifluoroacetamide-propofol, 4-Trifluoroacetamide-propofol]
- EC50 [1, 3]: 0.3 nM
- EC50 ([1]; EC50, further series of tests (later tests)): 0.11 nM
